Experimental data as given in patent US20240133877A1, “PRODUCTS AND METHODS FOR MONITORING ADHERENCE TO NUCLEOSIDE REVERSE TRANSCRIPTASE INHIBITOR THERAPY” (priority 2017, published 2024).
Several values for one entry are separate records, joined by “and”; a condition that tells them apart may be missing. Identical values can stand only once. Each block holds one compound with its values, some of them ahead of it.

Key:
[1] = tested on: pAb 313; assay: Cross reactivity of compounds spiked in buffer with pAb 313; assay type: binding, rabbit; settings: compound spiked in buffer
Procedure: (§1) To identify which compounds were causing cross reactivity, potentially cross-reactive compounds (compounds with similar chemical structure to TFV) were spiked in buffer and tested with the pAbs. We tested 11 compounds, and their percent cross reactivity was calculated for each of the substances in Table 3 to each antibody.

[2] = tested on: pAb 312; assay: Cross reactivity of compounds spiked in buffer with pAb 312; assay type: binding, rabbit; settings: compound spiked in buffer
Procedure: as §1

[3] = tested on: anti-TFV monoclonal antibody-HRP conjugates; assay: Whole-blood TFV-DP ELISA with phosphatase; assay type: binding; settings: for OD Value: replicates
Procedure: ELISA plates and reagents were equilibrated at room temperature. 50 μL of TFV-DP standard were plated onto a dilution plate in triplicate to generate a standard curve. TFV-DP standards were 250, 100, 50, 25, 10, 5, and 1 ng/mL, along with a blank. 50 μL of whole blood samples were added in duplicate or triplicate.
[…] 25 μL of conjugate solution containing anti-TFV monoclonal antibody-HRP conjugates was added to each well.
The dilution plate was covered and incubated at 25° C. for 30 minutes with shaking at 300-600 rpm. After incubation, the total volume of the dilution plate wells was transferred to an ELISA plate pre-coated with tenofovir-BSA conjugate (TFV-BSA). The ELISA plate was covered and incubated at 25° C. for 30 minutes with shaking at 300-600 rpm. The ELISA plate was washed with 350 μL per well of wash buffer for a total of 6 cycles, with a final aspirate.
100 μL of TMB substrate was added to each well. The ELISA plate was incubated in the dark at 25° C. for 30 minutes. 100 μL of stop solution was added to each well to quench the reactions. Absorbance was measured at 450 (primary) and 630 (reference) nm wavelengths within 15 minutes of quenching the reactions. OD was calculated by subtracting the reference absorbance from the primary absorbance. A standard curve was generated using a 4-parameter logistic regression or a 5-parameter logistic regression. The percent inhibition was calculated using the following formula: […]

[4] = tested on: anti-TFV antibodies conjugated to colloidal gold; assay: Negative readout lateral flow assay, TFV-DP in PBS; assay type: binding
Excerpt: […] Samples were loaded onto negative readout lateral flow assays. Lateral flow assays had anti-TFV antibodies conjugated to colloidal gold at the conjugate pad and TFV derivates striped at the test line. Visual reads were made at 10- and 15-minute time points.

[5] = tested on: anti-TFV antibodies conjugated to colloidal gold; assay: Negative readout lateral flow assay, TFV-DP in whole blood; assay type: binding; design: Visual Read Results / Test Line Visual Read Results: scale not given here; settings: for TFV-DP conversion to TFV: phosphatase 30 minutes; for Visual Read Results: WB with phosphatase
Procedure: […] Samples were diluted by 1:10 or 1:2 and loaded onto negative readout lateral flow assays. Visual reads were made at 10- and 15-minute time points.
Samples were loaded onto negative readout lateral flow assays. Visual reads were made at 10- and 15-minute time points. Results are shown in FIGS. 11A and 11B and Table 10.

[6] = red blood cells and dried blood spots; cited from earlier work
[7] = Urine and plasma TFV levels by LC-MS/MS in participants taking TAF; assay type: in vivo, human
Procedure: Blood and urine samples were collected from 3 cohorts of patients: (1) 10 HIV positive participants with suppressed virus on a TAF-based regimen, (2) 10 HIV- participants administered 1 dose of FTC/TAF followed by urine and plasma sampling for 7 days starting 1-3 hours post-dose, and (3) 10 HIV- participants administered 7 daily doses of FTC/TAF followed by urine and plasma sampling for 10 days starting 1-3 hours after the last dose. Samples were analyzed using liquid chromatography-tandem mass spectrometry (LC-MS/MS) with high sensitivity and specificity for TFV. Samples from cohort 2 were compared to a historical cohort administered one dose of FTC/TD F.

[8] = HIV-positive participants on TAF-based regimen (Cohort 1)

Compound: Nc1ccn(C[C@@H](CO)OCP(=O)(O)O)c(=O)n1 [Cidofovir Hydrate]
Cross Reactivity of 313 (vs TFV standard) [1]: Reactive (5%) | Cross Reactivity of 312 (vs TFV standard) [2]: None

Compound: Nc1ncnc2c1ncn2[C@@H]1O[C@H](COP(=O)(O)O)[C@@H](O)[C@H]1O.O [Adenosine 5′ Monophosphate Monohydrate]
Cross Reactivity of 313 (vs TFV standard) [1]: None | Cross Reactivity of 312 (vs TFV standard) [2]: None

Compound: Nc1nc2c(ncn2[C@H]2C[C@H](O)[C@@H](COP(=O)(O)OP(=O)(O)OP(=O)(O)O)O2)c(=O)[nH]1 [2′Deoxyguanosine 5′ Triphosphate]
Cross Reactivity of 313 (vs TFV standard) [1]: None | Cross Reactivity of 312 (vs TFV standard) [2]: None

% Inhibition ([3]; No Phosphatase): 33.05% | OD Average ([3]; No Phosphatase): 1.0986 | OD Value ([3]; No Phosphatase): 1.088 and 1.2148 and 1.2340 and 1.1083 | % Inhibition ([3]; Phosphatase): 76.63% | OD Average ([3]; Phosphatase): 0.3835 | OD Value ([3]; Phosphatase): 0.3853 and 0.3923 and 0.3798 and 0.3766 | Visual Read Results (Enzyme Present) ([4]; 325 ng/mL, 10 minutes): 5 | Visual Read Results (No Enzyme Present) ([4]; 325 ng/mL, 10 minutes): 8 | Visual Read Results (Enzyme Present) ([4]; 325 ng/mL, 15 minutes): 5/6 | Visual Read Results (No Enzyme Present) ([4]; 325 ng/mL, 15 minutes): 8 | Visual Read Results (Enzyme Present) ([4]; 1300 ng/mL, 10 minutes): 3 | Visual Read Results (No Enzyme Present) ([4]; 1300 ng/mL, 10 minutes): 7 | Visual Read Results (Enzyme Present) ([4]; 1300 ng/mL, 15 minutes): 3 | Visual Read Results (No Enzyme Present) ([4]; 1300 ng/mL, 15 minutes): 7 | Visual Read Results (Enzyme Present) ([4]; 3250 ng/mL, 10 minutes): 0/1 | Visual Read Results (No Enzyme Present) ([4]; 3250 ng/mL, 10 minutes): 6 | Visual Read Results (Enzyme Present) ([4]; 3250 ng/mL, 15 minutes): 0/1 | Visual Read Results (No Enzyme Present) ([4]; 3250 ng/mL, 15 minutes): 6
Compound: C[C@H](Cn1cnc2c(N)ncnc21)OCP(=O)(O)OP(=O)(O)OP(=O)(O)O [TFV-DP, tenofovir diphosphate]
TFV-DP conversion to TFV ([4]; phosphatase from sweet potato extract, 30 minutes): Conversion of TFV-DP to TFV was observed | TFV-DP conversion to TFV ([4]; without phosphatase treatment): No conversion of TFV-DP to TFV was observed | TFV-DP conversion to TFV ([5]; WB 975 and 325 ng/mL, diluted 1:10 or 1:2): Conversion of TFV-DP to TFV was observed | TFV-DP conversion to TFV ([5]; WB 975 and 325 ng/mL, no further dilution): Conversion of TFV-DP to TFV was observed | TFV-DP conversion to TFV ([5]; WB 1000-12000 ng/mL, diluted 1:10): Conversion of TFV-DP to TFV was observed | Test Line Visual Read Results ([5]; WB diluted 1:10, 1000 ng/ml, 10 minutes): 7 | Test Line Visual Read Results ([5]; WB diluted 1:10, 1000 ng/ml, 15 minutes): 7 | Test Line Visual Read Results ([5]; WB diluted 1:10, 2000 ng/ml, 10 minutes): 7 | Test Line Visual Read Results ([5]; WB diluted 1:10, 2000 ng/ml, 15 minutes): 7 | Test Line Visual Read Results ([5]; WB diluted 1:10, 3000 ng/ml, 10 minutes): 7 | Test Line Visual Read Results ([5]; WB diluted 1:10, 3000 ng/ml, 15 minutes): 7 | Test Line Visual Read Results ([5]; WB diluted 1:10, 3250 ng/ml, 10 minutes): 7 | Test Line Visual Read Results ([5]; WB diluted 1:10, 3250 ng/ml, 15 minutes): 7 | Test Line Visual Read Results ([5]; WB diluted 1:10, 4000 ng/ml, 10 minutes): 6 | Test Line Visual Read Results ([5]; WB diluted 1:10, 4000 ng/ml, 15 minutes): 6 | Test Line Visual Read Results ([5]; WB diluted 1:10, 5000 ng/ml, 10 minutes): 5 | Test Line Visual Read Results ([5]; WB diluted 1:10, 5000 ng/ml, 15 minutes): 5 | Test Line Visual Read Results ([5]; WB diluted 1:10, 6000 ng/ml, 10 minutes): 5 | Test Line Visual Read Results ([5]; WB diluted 1:10, 6000 ng/ml, 15 minutes): 5 | Test Line Visual Read Results ([5]; WB diluted 1:10, 7000 ng/ml, 10 minutes): 5 | Test Line Visual Read Results ([5]; WB diluted 1:10, 7000 ng/ml, 15 minutes): 5 | Test Line Visual Read Results ([5]; WB diluted 1:10, 8000 ng/ml, 10 minutes): 5 | Test Line Visual Read Results ([5]; WB diluted 1:10, 8000 ng/ml, 15 minutes): 5 | Test Line Visual Read Results ([5]; WB diluted 1:10, 9000 ng/ml, 10 minutes): 4 | Test Line Visual Read Results ([5]; WB diluted 1:10, 9000 ng/ml, 15 minutes): 4 | Test Line Visual Read Results ([5]; WB diluted 1:10, 9750 ng/ml, 10 minutes): 4 | Test Line Visual Read Results ([5]; WB diluted 1:10, 9750 ng/ml, 15 minutes): 4 | Test Line Visual Read Results ([5]; WB diluted 1:10, 10000 ng/ml, 10 minutes): 4 | Test Line Visual Read Results ([5]; WB diluted 1:10, 10000 ng/ml, 15 minutes): 4 | Test Line Visual Read Results ([5]; WB diluted 1:10, 11000 ng/ml, 10 minutes): 4 | Test Line Visual Read Results ([5]; WB diluted 1:10, 11000 ng/ml, 15 minutes): 4 | Test Line Visual Read Results ([5]; WB diluted 1:10, 12000 ng/ml, 10 minutes): 3 | Test Line Visual Read Results ([5]; WB diluted 1:10, 12000 ng/ml, 15 minutes): 3 | Visual Read Results ([5]; diluted 1:10 or 1:2, 325 ng/ml, 10 minutes): 6 | Visual Read Results ([5]; diluted 1:10 or 1:2, 325 ng/ml, 15 minutes): 6 | Visual Read Results ([5]; diluted 1:10 or 1:2, 975 ng/ml, 10 minutes): 4 | Visual Read Results ([5]; diluted 1:10 or 1:2, 975 ng/ml, 15 minutes): 4 | Visual Read Results ([5]; no further dilution (Table 10), 325 ng/ml, 10 minutes): 3/4 | Visual Read Results ([5]; no further dilution (Table 10), 325 ng/ml, 15 minutes): 3/4 | Visual Read Results ([5]; no further dilution (Table 10), 975 ng/ml, 10 minutes): 0 | Visual Read Results ([5]; no further dilution (Table 10), 975 ng/ml, 15 minutes): 0 | accumulation from the first dose to steady state [6]: 25 fold | half-life [6]: 17 days

Compound: Nc1nc2c(ncn2[C@@H]2O[C@H](COP(=O)([O-])[O-])[C@@H](O)[C@H]2O)c(=O)[nH]1.[Na+].[Na+] [Guanosine 5′ Monophosphate Disodium]
Cross Reactivity of 313 (vs TFV standard) [1]: None | Cross Reactivity of 312 (vs TFV standard) [2]: None

Compound: CNc1ncnc2c1ncn2[C@@H]1O[C@H](COP(=O)(O)O)[C@@H](O)[C@H]1O [N6 Methyladenosine 5′ Monophosphate]
Cross Reactivity of 313 (vs TFV standard) [1]: None | Cross Reactivity of 312 (vs TFV standard) [2]: Reactive (0.1%)

Compound: Nc1ncnc2c1ncn2[C@@H]1O[C@H](CO)[C@@H](OP(=O)(O)O)[C@H]1O [Adenosine 3′ Monophosphate]
Cross Reactivity of 313 (vs TFV standard) [1]: Reactive (0.1%) | Cross Reactivity of 312 (vs TFV standard) [2]: Reactive (0.1%)

Compound: CNc1ncnc2c1ncn2[C@@H]1O[C@H](CO)[C@@H](O)[C@H]1O [N6 Methyladenosine]
Cross Reactivity of 313 (vs TFV standard) [1]: None | Cross Reactivity of 312 (vs TFV standard) [2]: None

Compound: Nc1ncnc2c1ncn2[C@@H]1O[C@H](COP(=O)([O-])OP(=O)([O-])OP(=O)(O)O)[C@@H](O)[C@H]1O.[Na+].[Na+] [Adenosine 5′ Triphosphate Disodium]
Cross Reactivity of 313 (vs TFV standard) [1]: None | Cross Reactivity of 312 (vs TFV standard) [2]: None

Compound: Nc1ncnc2c1ncn2CCOCP(=O)(O)O [Adefovir]
Cross Reactivity of 313 (vs TFV standard) [1]: Reactive (0.1%) | Cross Reactivity of 312 (vs TFV standard) [2]: Reactive (0.1%)

urine TFV concentration ([7]; 7 consecutive doses FTC/TAF, 1-3 hours after discontinuation of dosing): > 1000 ng/mL | urine TFV level ([7]; 7 consecutive doses FTC/TAF, up to 7 days post discontinuation, in 8 out of 10 participants): > 100 ng/mL | TFV concentration higher in urine than plasma ([7]; HIV-positive participants on TAF-based regimen): 2 logs | plasma TFV concentration [7, 8]: 10 ng/mL | urine TFV concentration [7, 8]: 1000 ng/mL | plasma TFV concentration ([7]; both HIV-negative cohorts (FTC/TAF), all time points): ≤ 10 ng/mL | concentration at 144 h ([7]; human, urine, oral, single dose FTC/TAF, for 6 days, in 8 of 10 participants, read-out: urine TFV concentration remaining): > 100 ng/mL | persistence of TFV in urine at detectable concentrations ([7]; patients taking FTC/TAF): at least 7 days | urine TFV concentrations after FTC/TAF versus historical cohort administered FTC/TDF ([7]; single dose): comparable | urine TFV concentration ([7]; single dose FTC/TAF, HIV- subjects, 1-3 hours post-dose): 100 to 1000 ng/mL
Compound: C[C@H](Cn1cnc2c(N)ncnc21)OCP(=O)(O)O [TFV, tenofovir]

Compound: Nc1ncnc2c1ncn2[C@H]1C[C@H](O)[C@@H](COP(=O)(O)OP(=O)(O)OP(=O)(O)O)O1 [2′ Deoxyadenosine 5′ Triphosphate]
Cross Reactivity of 313 (vs TFV standard) [1]: None | Cross Reactivity of 312 (vs TFV standard) [2]: None

Compound: Nc1ncnc2c1ncn2[C@@H]1O[C@H](CO)[C@@H](O)[C@H]1O [Adenosine]
Cross Reactivity of 313 (vs TFV standard) [1]: Reactive (0.1%) | Cross Reactivity of 312 (vs TFV standard) [2]: None
